Laboratory results: PMC7557402, “Evaluation of Nucleoside Analogs as Antimicrobials Targeting Unique Enzymes in Borrelia burgdorferi” (Pathogens, 2020)

How the values were obtained:
Bgp [1] = molecular target: T1, Bgp (Borreliella burgdorferi, UniProt Q9F952); assay: MTAN spectrophotometric activity assay (specific activity, Km); type: biochemical, Borrelia burgdorferi
Protocol: (§1) Recombinant MTANs were expressed and purified as previously described. Briefly, overnight 10 mL cultures of recombinant E. coli BL21(DE3) pLysS cells containing engineered pET30a expression plasmids for Bgp, MtnN or Pfs were grown at 37 °C with shaking (150 rpm) in LB broth supplemented with 50 µg/mL kanamycin and 0.5% glucose. The culture was diluted 1:50 in fresh medium and incubated at 37 °C with shaking (150 rpm) until the absorbance (600 nm) reached 0.4–0.6. Protein expression was induced with the addition of isopropyl β-D-1-thiogalactopyranoside (IPTG) to a final concentration of 1 mM and continued overnight incubation with shaking at 30 °C. Cells were harvested by centrifugation (10,000× g/15 min), and the pellet was washed once with ice-cold lysis buffer (50 mM sodium phosphate, pH = 8.0, 300 mM NaCl, 10 mM imidazole, 2mM β mercaptoethanol). Harvested cell pellets were resuspended in 10 mL fresh lysis buffer and lysed by sonication on ice using a Misonix Sonicator 300 (power setting 7, pulse 30 s, 1 min cooling with total sonication for 2.5 min). The cell lysates were centrifuged at 10,000× g for 15 min at 4 °C to remove debris, and the lysate was further filtered through a […] syringe filter to obtain a clear extract. Recombinant N-terminal hexahistidine tagged proteins were purified from the lysate using HisPur™ affinity columns (Thermo Scientific) according to the manufacturer’s specifications, and specifically eluted with 250 mM imidazole containing buffer (pH = 7). Eluted materials were analyzed by SDS-PAGE and Coomassie blue staining and found to be >95% homogeneous. Enzyme concentrations were determined using UV scans on a Cary100 spectrophotometer (Agilent) to determine the absorbance at 280 nm and applying extinction coefficients (0.1%) of 0.594 (Bgp), 0.637 (MtnN), and 0.404 (Pfs). Enzyme stocks (1 mg/mL) were prepared in 20% glycerol and stored at −80 °C.
(§2) Enzyme specific activities were determined using previously reported optimal pH conditions (50 mM sodium phosphate, pH = 7, for Bgp, MtnN; 50 mM sodium phosphate-citrate, pH = 5, for Pfs) and a spectrophotometric activity assay that measures the decrease in UV absorbance at 275 nm that occurs when MTA is cleaved to 5-methylthioribose and adenine (ε275 = 1.6 mM^−1cm^−1). The extinction coefficients for cleavage of other nucleosides were experimentally validated and found to be the same for MSeA, FSBA, and IADO (ε275 = 1.6 mM^−1cm^−1). Due to the added UV absorbance imparted by the 5′ purine group found in PurTA, the enzyme reactions were followed spectrophotometrically at 260 nm using the experimentally determined extinction coefficient of ε260 = 5.6 mM^−1cm^−1. Enzyme specific activities for MTA were generally 1–2 U/mg (1 U = µmol MTA hydrolyzed/min). The enzyme specific activities for other nucleosides were determined and reported in U/mg and as the % max specific activity (relative to MTA at 100%).
(§3) Kinetic constants have been previously reported for MTA [18]. As MSeA was also an efficient substrate for the B. burgdorferi nucleosidases, kinetic constants were determined using the activity assay described above, varying the nucleoside concentrations from 1 to 20 µM, and fitting the data on substrate-velocity plots to the Michaelis–Menten equation using GraphPad Prism (version 6):(1) Vo=Vmax[S]/Km+[S]

MtnN [2] = molecular target: T2, MtnN (Borreliella burgdorferi, UniProt O50860); assay: as above; type: biochemical, Borrelia burgdorferi
T2 sequence (O50860 entry or part of it): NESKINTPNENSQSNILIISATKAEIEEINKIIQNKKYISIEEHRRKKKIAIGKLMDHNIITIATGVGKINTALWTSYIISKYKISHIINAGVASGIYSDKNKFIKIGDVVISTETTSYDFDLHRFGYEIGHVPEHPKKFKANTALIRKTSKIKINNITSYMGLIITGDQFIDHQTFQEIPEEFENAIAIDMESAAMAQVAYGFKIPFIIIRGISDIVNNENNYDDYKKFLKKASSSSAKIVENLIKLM
Protocol: as §1, §2, §3

Pfs [3] = molecular target: T3, Pfs (Borreliella burgdorferi, UniProt O50162); assay: as above; type: biochemical, Borrelia burgdorferi
T3 sequence (O50162 entry or part of it): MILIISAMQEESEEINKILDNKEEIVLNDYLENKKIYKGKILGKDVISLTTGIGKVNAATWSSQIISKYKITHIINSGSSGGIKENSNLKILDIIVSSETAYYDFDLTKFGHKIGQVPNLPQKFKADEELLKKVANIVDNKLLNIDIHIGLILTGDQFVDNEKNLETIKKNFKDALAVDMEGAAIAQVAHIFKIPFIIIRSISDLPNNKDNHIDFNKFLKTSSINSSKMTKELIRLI
Protocol: as §1, §2, §3

Bgp [4] = molecular target: T1, Bgp; assay: MTAN inhibition constants (competitive inhibition of MTA hydrolysis); type: biochemical, Borrelia burgdorferi; settings: MTA 100 µM, inhibitor 0 to 100 µM, read-out: Ki (inhibition constant)
Protocol: (§4) The inhibited velocity (Vo’) and uninhibited velocity (Vo) values were determined, and the ratio of Vo’/Vo plotted as a function of inhibitor concentration. Ki values were calculated from these plots by fitting the data to the equation for competitive inhibition using GraphPad Prism:(2) Vo^′/Vo=Km+[S]/Km+[S]+(Km[I]/Ki)

MtnN [5] = molecular target: T2, MtnN; assay: as above; type: biochemical, Borrelia burgdorferi; settings: MTA 100 µM, inhibitor 0 to 100 µM, read-out: Ki (inhibition constant)
Protocol: as §4, with “For the other compounds, inhibition constants (Ki’s) were determined as previously described, using an MTA concentration of 100 µM and varying the inhibitor concentration from 0 to 100 µM. The” for “The”
(§5) The enzyme inhibition constant and delayed onset inhibition constant for dET-ImmA was previously reported.

Pfs [6] = molecular target: T3, Pfs; assay: as above; type: biochemical, Borrelia burgdorferi; settings: MTA 100 µM, inhibitor 0 to 100 µM, read-out: Ki (inhibition constant)
Protocol: as §4, with “For the other compounds, inhibition constants (Ki’s) were determined as previously described, using an MTA concentration of 100 µM and varying the inhibitor concentration from 0 to 100 µM. The” for “The”
as §5

[7] = tested on: Borrelia MTANs (Bgp, MtnN, Pfs); assay: MTAN activity/kinetics, across the nucleosidases; type: biochemical; settings: range over the B. burgdorferi nucleosidases
Protocol: as §2, §3
as §4, with “For the other compounds, inhibition constants (Ki’s) were determined as previously described, using an MTA concentration of 100 µM and varying the inhibitor concentration from 0 to 100 µM. The” for “The”

B. burgdorferi N40 = assay: Subculture without inhibitor after 7 days of treatment: bacteriostatic versus bactericidal; type: cell-based, Borrelia burgdorferi
Protocol: After 7 days of treatment, a 5 µL aliquot from each treatment tube (and untreated control) was added to 1 mL of BSKII-RS medium to allow any remaining viable spirochetes in the sample to grow. After incubation for 7–21 days at 33 °C, the survival of the spirochetes was determined using dark-field microscopy to observe motility and by employing bioluminescence measurements to assess vitality of the recovered culture.
To further differentiate between bacteriostatic versus bactericidal activities of MTAN inhibitors, we subcultured drug treated spirochetes in the absence of inhibitors to recover any live B. burgdorferi remaining after seven days of inhibitor treatment (summarized in Table 4). If non-motile spirochetes from treated cultures were able to grow back, the inhibitor was determined to have a bacteriostatic effect at the selected concentration. […] Spirochete survival was determined by both dark-field microscopy and bioluminescence measurements. Microscopic examination allowed assessment of motility of the spirochetes whereas bioluminescence assays assessed recovery and viability of B. burgdorferi cells. […] By comparison, a reduction in bioluminescence compared to the untreated control was observed after treatment with dEt-ImmA at a 0.4 µM or greater concentration. […] After seven days of treatment, live spirochetes were only recovered when concentrations of ≤0.4 µM were used for dEt-ImmA and IADO.

[8] = pH 7, 1 U = 1 µmol MTA hydrolyzed per minute

T1 sequence (Q9F952 entry or part of it): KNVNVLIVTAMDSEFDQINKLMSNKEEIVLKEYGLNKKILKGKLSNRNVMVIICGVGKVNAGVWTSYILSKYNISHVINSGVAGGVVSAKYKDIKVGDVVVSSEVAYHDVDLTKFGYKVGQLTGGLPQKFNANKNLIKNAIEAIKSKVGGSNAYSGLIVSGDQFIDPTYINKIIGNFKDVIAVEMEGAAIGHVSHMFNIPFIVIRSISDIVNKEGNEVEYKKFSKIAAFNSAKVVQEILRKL

Structure (SMILES): Nc1ncnc2c1ncn2[C@@H]1O[C@H](CI)[C@@H](O)[C@H]1O [IADO, 5′-deoxy-5′-iodoadenosine]
- Specific Activity (Bgp [1]; [8]): 0.04 U/mg
- % Max Specific Activity (Bgp [1]; relative to MTA as a substrate): 4%
- Specific Activity (MtnN [2]; [8]): 0.03 U/mg
- % Max Specific Activity (MtnN [2]; relative to MTA as a substrate): 3%
- Specific Activity (Pfs [3]; pH 5, 1 U = 1 µmol MTA hydrolyzed per minute): 0.11 U/mg
- % Max Specific Activity (Pfs [3]; relative to MTA as a substrate): 6%
- Ki (Bgp [4]): 630 nM
- Ki (MtnN [5]): 2470 nM
- Ki (Pfs [6]): 900 nM
- activity relative to that found for MTA [7]: 3–6%
- recovery of live spirochetes (B. burgdorferi N40; 2 µM and 10 µM, 21 days of subculture in media lacking MTAN inhibitors): no live spirochetes were recovered
- Inhibitor Activity (B. burgdorferi N40; Dose: 2 µM, 10 µM, 7 days of treatment, then subculture): Bactericidal
- concentrations at which live spirochetes were recovered (B. burgdorferi N40; after seven days of treatment): ≤ 0.4 µM
- concentrations that exert bactericidal activity (B. burgdorferi N40; after seven days of treatment, bacteriostatic at lower concentrations): ≥ 1 µM
